Earlier results on one substance are cited in patent US5883119A, “Triterpene derivatives with immunosuppressant activity” (Merck & Co., Inc., priority 1996, dated 1999).

This series has as its system Kv 1.3 channels (CHO cells transfected with Kv 1.3 channels). The conditions noted are these: stated in the method as property of the control blocker.

“margatoxin (TIINVKCTSPKQCLPPCKAQFGQSAGAKCMNGKCKCYPH; UniProt P40755 1-39, looked up)”: the IC50 was 0.1 nM.

As a reminder, the IC50 is the concentration at which inhibition is half-maximal.
